Measured values: publication PMC3272148 (2011)

Columns and labels:
5-HT2C receptor [1] = biological target: T1, 5-HT2C receptor (Oryctolagus cuniculus, UniProt G1TAG7); assay: [3H]mesulergine saturation radioligand binding
T1 sequence (G1TAG7 33-453): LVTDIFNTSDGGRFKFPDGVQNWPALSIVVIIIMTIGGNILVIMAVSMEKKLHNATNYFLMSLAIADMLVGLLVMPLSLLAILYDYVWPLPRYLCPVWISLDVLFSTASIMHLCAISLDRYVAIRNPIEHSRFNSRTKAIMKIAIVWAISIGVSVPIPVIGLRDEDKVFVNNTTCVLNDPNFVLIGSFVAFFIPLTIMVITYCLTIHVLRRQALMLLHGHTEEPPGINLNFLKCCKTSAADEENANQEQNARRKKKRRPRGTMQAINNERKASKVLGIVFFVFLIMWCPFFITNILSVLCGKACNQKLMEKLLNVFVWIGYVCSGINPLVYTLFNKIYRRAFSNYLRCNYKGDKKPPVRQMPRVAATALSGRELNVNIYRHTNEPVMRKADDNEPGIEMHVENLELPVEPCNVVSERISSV

5-HT2C receptor [2] = biological target: T1, 5-HT2C receptor; assay: [3H]mesulergine competition radioligand binding
dopamine1 (D1) receptor [3] = biological target: T2, dopamine1 (D1) receptor (Oryctolagus cuniculus, UniProt G1SML2); assay: [3H]SCH23390 competition radioligand binding
[4] = biological target: serotonin2A (5-HT2A) receptor (Oryctolagus cuniculus, UniProt G1SYA7); assay: [3H]ketanserin saturation radioligand binding
dopamine1 (D1) receptor [5] = biological target: T2, dopamine1 (D1) receptor; assay: [3H]SCH23390 saturation radioligand binding

T2 sequence (G1SML2 1-448): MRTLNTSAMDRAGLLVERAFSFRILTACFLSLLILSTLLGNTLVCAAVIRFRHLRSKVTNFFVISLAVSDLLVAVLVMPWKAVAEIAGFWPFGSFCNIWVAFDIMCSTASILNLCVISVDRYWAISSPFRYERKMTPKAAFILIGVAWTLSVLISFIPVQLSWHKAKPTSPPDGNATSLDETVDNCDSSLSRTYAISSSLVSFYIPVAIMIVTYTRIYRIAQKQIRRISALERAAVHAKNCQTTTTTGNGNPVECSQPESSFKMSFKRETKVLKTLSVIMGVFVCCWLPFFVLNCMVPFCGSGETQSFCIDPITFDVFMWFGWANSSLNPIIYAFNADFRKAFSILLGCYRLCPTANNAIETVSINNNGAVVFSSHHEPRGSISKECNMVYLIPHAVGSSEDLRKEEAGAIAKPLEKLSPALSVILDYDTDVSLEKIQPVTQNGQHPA
Sequence of serotonin2A (5-HT2A) receptor (G1SYA7 1-469): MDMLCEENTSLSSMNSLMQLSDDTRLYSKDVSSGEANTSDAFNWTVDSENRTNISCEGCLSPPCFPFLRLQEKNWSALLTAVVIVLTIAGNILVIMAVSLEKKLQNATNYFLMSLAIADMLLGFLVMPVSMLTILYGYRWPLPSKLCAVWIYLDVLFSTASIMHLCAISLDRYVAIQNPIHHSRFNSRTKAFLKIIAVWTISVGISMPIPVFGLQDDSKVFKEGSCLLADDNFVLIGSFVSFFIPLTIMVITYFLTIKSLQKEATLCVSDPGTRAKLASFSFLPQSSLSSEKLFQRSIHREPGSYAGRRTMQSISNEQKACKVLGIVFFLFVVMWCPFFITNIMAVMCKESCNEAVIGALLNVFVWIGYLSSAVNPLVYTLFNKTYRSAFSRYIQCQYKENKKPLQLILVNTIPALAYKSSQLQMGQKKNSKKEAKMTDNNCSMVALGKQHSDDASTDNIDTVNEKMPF

CN1C[C@@H](NS(=O)(=O)N(C)C)C[C@@H]2c3cccc4c3c(cn4C)C[C@H]21 [mesulergine]
[3H]mesulergine saturation radioligand binding (Bmax) (5-HT2C receptor [1]): Serotonin2C receptor density was quantified using eight concentrations of the antagonist radioligand, [^3H]mesulergine

CCN(CC)C(=O)[C@@H]1C=C2c3cccc4[nH]cc(c34)C[C@H]2N(C)C1 [LSD]
Ki (5-HT2C receptor [2]): 7.5 nM
Ki (dopamine1 (D1) receptor [3]): 161 nM

COc1cc(CC(C)N)c(OC)cc1I (racemic) [DOI, (±)-1-(2,5-dimethoxy-4-iodophenyl)-2-aminopropane]
Ki (5-HT2C receptor [2]): 73.5 nM

O=C(c1ccc(F)cc1)C1CCN(CCn2c(=O)[nH]c3ccccc3c2=O)CC1 [ketanserin]
Kd [4]: 0.21 nM

CN1CCc2cc(Cl)c(O)cc2[C@@H](c2ccccc2)C1 [SCH23390]
[3H]SCH23390 saturation radioligand binding (Bmax) (dopamine1 (D1) receptor [5]): Dopamine1 receptor density was quantified using eight concentrations of the antagonist radioligand, [^3H]SCH23390
